Test results as given in patent US20240226125A1, “USE OF SOTAGLIFLOZIN FOR THE TREATMENT OF PATIENTS WITH TYPE 1 DIABETES MELLITUS” (priority 2019, published 2024).

How the values were obtained:
[1] = system: patients with type 1 diabetes; conditions: phase II trials; cited from earlier work
[2] = system: adult patients with Type 1 Diabetes Mellitus who have inadequate glycemic control with insulin therapy; assay: inTandem 1 and inTandem 2 pooled clinical studies, safety events / main risks; type: in vivo, human; conditions: Week 52
[3] = 200 mg (N = 219), Baseline BMI <27 kg/m^2
[4] = 200 mg (N = 305), Baseline BMI ≥27 kg/m^2
[5] = 200 mg, Baseline BMI <27 kg/m^2
[6] = 200 mg, Baseline BMI ≥27 kg/m^2
[7] = 400 mg (N = 212), Baseline BMI <27 kg/m^2

In the case of `CCOc1ccc(Cc2cc([C@@H]3O[C@H](SC)[C@@H](O)[C@H](O)[C@H]3O)ccc2Cl)cc1` [sotagliflozin, (2S,3R,4R,5S,6R)-2-(4-chloro-3-(4-ethoxybenzyl)phenyl)-6-(methylthio)tetrahydro-2H-pyran-3,4,5-triol], the “glycemic control (reduction in A1C)” value [1] is listed as “significantly improve glycemic control”, the “Genital Mycotic Infections (male), Events [n (%) n]: patients n” value ([2]; 200 mg (N = 108), Baseline BMI <27 kg/m^2) is listed as 2 and the “Genital Mycotic Infections (female), Events [n (%) n]: patients n” value ([2]; 200 mg (N = 111), Baseline BMI <27 kg/m^2) is listed as 8. The “Genital Mycotic Infections (female), Events [n (%) n]: patients n” value ([2]; 200 mg (N = 148), Baseline BMI ≥27 kg/m^2) was 32, the “Genital Mycotic Infections (male), Events [n (%) n]: patients n” value ([2]; 200 mg (N = 157), Baseline BMI ≥27 kg/m^2) was 6 and the “Positively Adjudicated Diabetic Ketoacidosis, Events [n (%) n]: patients n” value [2, 3] was 7. The “Positively Adjudicated Severe Hypoglycemia, Events [n (%) n]: patients n” value [2, 3] was 17, the “Positively Adjudicated Diabetic Ketoacidosis, Events [n (%) n]: patients n” value [2, 4] was 8 and the “Positively Adjudicated Severe Hypoglycemia, Events [n (%) n]: patients n” value [2, 4] was 13. The “Diarrhea, EAIR per 1,000 Subject-years (95% CL)” value [2, 5] was 89.76 (48.29, 131.23) per 1,000 Subject-years, the “Diarrhea, Events [n (%) n]: events n” value [2, 5] was 23 and the “Diarrhea, Events [n (%) n]: patients (%)” value [2, 5] was 8.2%. For the same compound, the “Diarrhea, Events [n (%) n]: patients n” value [2, 5] was 18, the “Diarrhea, Events per Subject per Year” value [2, 5] was 0.115 Events per Subject per Year and the “Diarrhea, Relative Risk of EAIR (95% CL) Versus Placebo” value [2, 5] was 2.60 (1.11, 6.68). The “Documented hypoglycemia <55 mg/dL, Events per Subject per Year” value [2, 5] was 16.86 Events per Subject per Year, the “Genital Mycotic Infections (female), EAIR per 1,000 Subject-years (95% CL)” value [2, 5] was 78.17 (24.00, 132.34) per 1,000 Subject-years and the “Genital Mycotic Infections (female), Events [n (%) n]: events n” value [2, 5] was 10. For the same compound, the “Genital Mycotic Infections (female), Events [n (%) n]: patients (%)” value [2, 5] was 7.2%, the “Genital Mycotic Infections (female), Events per Subject per Year” value [2, 5] was 0.098 Events per Subject per Year and the “Genital Mycotic Infections (female), Relative Risk of EAIR (95% CL) Versus Placebo” value [2, 5] was 2.57 (0.70, 11.96). For the same compound, the “Genital Mycotic Infections (male), EAIR per 1,000 Subject-years (95% CL)” value [2, 5] was 20.37 (0.00, 48.60) per 1,000 Subject-years, the “Genital Mycotic Infections (male), Events [n (%) n]: events n” value [2, 5] was 2 and the “Genital Mycotic Infections (male), Events [n (%) n]: patients (%)” value [2, 5] was 1.9%. For the same compound, the “Genital Mycotic Infections (male), Events per Subject per Year” value [2, 5] was 0.020 Events per Subject per Year, the “Genital Mycotic Infections (male), Relative Risk of EAIR (95% CL) Versus Placebo” value [2, 5] was 1.06 (0.11, 10.19) and the “Positively Adjudicated Diabetic Ketoacidosis, EAIR per 1,000 Subject-years (95% CL)” value [2, 5] was 34.91 (9.05, 60.77) per 1,000 Subject-years. For the same compound, the “Positively Adjudicated Diabetic Ketoacidosis, Events [n (%) n]: events n” value [2, 5] was 7, the “Positively Adjudicated Diabetic Ketoacidosis, Events [n (%) n]: patients (%)” value [2, 5] was 3.2% and the “Positively Adjudicated Diabetic Ketoacidosis, Events per Subject per Year” value [2, 5] was 0.035 Events per Subject per Year. For the same compound, the “Positively Adjudicated Severe Hypoglycemia, EAIR per 1,000 Subject-years (95% CL)” value [2, 5] was 84.77 (44.48, 125.07) per 1,000 Subject-years, the “Positively Adjudicated Severe Hypoglycemia, Events [n (%) n]: events n” value [2, 5] was 43 and the “Positively Adjudicated Severe Hypoglycemia, Events [n (%) n]: patients (%)” value [2, 5] was 7.8%. The “Positively Adjudicated Severe Hypoglycemia, Events per Subject per Year” value [2, 5] was 0.214 Events per Subject per Year, the “Positively Adjudicated Severe Hypoglycemia, Relative Risk of EAIR (95% CL) Versus Placebo” value [2, 5] was 1.01 (0.51, 2.00) and the “Diarrhea, EAIR per 1,000 Subject-years (95% CL)” value [2, 6] was 57.25 (29.20, 85.30) per 1,000 Subject-years. The “Diarrhea, Events [n (%) n]: events n” value [2, 6] was 22, the “Diarrhea, Events [n (%) n]: patients (%)” value [2, 6] was 5.2% and the “Diarrhea, Events [n (%) n]: patients n” value [2, 6] was 16. For the same compound, the “Diarrhea, Events per Subject per Year” value [2, 6] was 0.079 Events per Subject per Year, the “Diarrhea, Relative Risk of EAIR (95% CL) Versus Placebo” value [2, 6] was 0.78 (0.40, 1.51) and the “Documented hypoglycemia <55 mg/dL, Events per Subject per Year” value [2, 6] was 13.41 Events per Subject per Year. For the same compound, the “Genital Mycotic Infections (female), EAIR per 1,000 Subject-years (95% CL)” value [2, 6] was 240.02 (156.86, 323.19) per 1,000 Subject-years, the “Genital Mycotic Infections (female), Events [n (%) n]: events n” value [2, 6] was 41 and the “Genital Mycotic Infections (female), Events [n (%) n]: patients (%)” value [2, 6] was 21.6%. For the same compound, the “Genital Mycotic Infections (female), Events per Subject per Year” value [2, 6] was 0.308 Events per Subject per Year, the “Genital Mycotic Infections (female), Relative Risk of EAIR (95% CL) Versus Placebo” value [2, 6] was 3.37 (1.65, 7.46) and the “Genital Mycotic Infections (male), EAIR per 1,000 Subject-years (95% CL)” value [2, 6] was 41.05 (8.20, 73.89) per 1,000 Subject-years. The “Genital Mycotic Infections (male), Events [n (%) n]: events n” value [2, 6] was 7, the “Genital Mycotic Infections (male), Events [n (%) n]: patients (%)” value [2, 6] was 3.8% and the “Genital Mycotic Infections (male), Events per Subject per Year” value [2, 6] was 0.048 Events per Subject per Year. For the same compound, the “Genital Mycotic Infections (male), Relative Risk of EAIR (95% CL) Versus Placebo” value [2, 6] was 5.96 (0.88, 138.01), the “Positively Adjudicated Diabetic Ketoacidosis, EAIR per 1,000 Subject-years (95% CL)” value [2, 6] was 28.62 (8.79, 48.46) per 1,000 Subject-years and the “Positively Adjudicated Diabetic Ketoacidosis, Events [n (%) n]: events n” value [2, 6] was 9. The “Positively Adjudicated Diabetic Ketoacidosis, Events [n (%) n]: patients (%)” value [2, 6] was 2.6%, the “Positively Adjudicated Diabetic Ketoacidosis, Events per Subject per Year” value [2, 6] was 0.032 Events per Subject per Year and the “Positively Adjudicated Diabetic Ketoacidosis, Relative Risk of EAIR (95% CL) Versus Placebo” value [2, 6] was 7.77 (1.24, 173.82). The “Positively Adjudicated Severe Hypoglycemia, EAIR per 1,000 Subject-years (95% CL)” value [2, 6] was 46.51 (21.23, 71.80) per 1,000 Subject-years, the “Positively Adjudicated Severe Hypoglycemia, Events [n (%) n]: events n” value [2, 6] was 25 and the “Positively Adjudicated Severe Hypoglycemia, Events [n (%) n]: patients (%)” value [2, 6] was 4.3%. The “Positively Adjudicated Severe Hypoglycemia, Events per Subject per Year” value [2, 6] was 0.089 Events per Subject per Year, the “Positively Adjudicated Severe Hypoglycemia, Relative Risk of EAIR (95% CL) Versus Placebo” value [2, 6] was 0.57 (0.28, 1.14) and the “Genital Mycotic Infections (male), Events [n (%) n]: patients n” value ([2]; 400 mg (N = 99), Baseline BMI <27 kg/m^2) was 9. The “Genital Mycotic Infections (female), Events [n (%) n]: patients n” value ([2]; 400 mg (N = 113), Baseline BMI <27 kg/m^2) was 19, the “Genital Mycotic Infections (male), Events [n (%) n]: patients n” value ([2]; 400 mg (N = 154), Baseline BMI ≥27 kg/m^2) was 7 and the “Genital Mycotic Infections (female), Events [n (%) n]: patients n” value ([2]; 400 mg (N = 159), Baseline BMI ≥27 kg/m^2) was 28. The “Positively Adjudicated Diabetic Ketoacidosis, Events [n (%) n]: patients n” value [2, 7] was 9, the “Positively Adjudicated Severe Hypoglycemia, Events [n (%) n]: patients n” value [2, 7] was 11 and the “Positively Adjudicated Diabetic Ketoacidosis, Events [n (%) n]: patients n” value ([2]; 400 mg (N = 313), Baseline BMI ≥27 kg/m^2) was 11.
